According to patent US4587046A, “Drug-carrier conjugates” (The Regents of the University of California, priority 1982, dated 1986):
Square brackets hold non-standard residues; d marks the D form. Peptide text beside a SMILES is read from it. * marks the point of attachment. Phe(4-NH2) = Nc1ccc(C[C@H](N)C(=O)O)cc1; X1 = CC(CCCCC(=O)*)NCC(O)c1ccc(O)c(O)c1; Nva(5-OH) = N[C@@H](CCCO)C(=O)O; Boc = CC(C)(C)OC(=O)*

Columns and labels:
[1] = tested on: S49 cells; assay: wild type S49 cell assay, cyclic AMP accumulation (relative beta adrenergic activity); format: cell-based; conditions: in vitro, ratio of KA for isoproterenol to KA for the compound, isoproterenol = 1
Experimental: The biological activity of the conjugates of the invention was tested in a wild type S49 cell assay. The assay is indicative of the relative beta adrenergic activity of the compound. The activity of each conjugate tested was compared to the activity of isoproterenol as the base standard. In the test, S49 cells were centrifuged and then resuspended (2 to 2.5×10^6 cells per ml.) in Dulbecco's modified Eagle medium (13.3 g per liter) and 20 mM Hepes (pH 7.4)+0.1% bovine serum albumin. The S49 suspensions were incubated at 37° C. for 10 minutes without the conjugate and then added to tubes with or without the conjugate for an additional 6 minutes. The reaction was stopped by cooling on ice. Incubation without the conjugates present established a base line. After isolation of a pellet of cells by centrifugation they were resuspended and boiled. Aliquots were then used for the competitive binding assay for cyclic AMP described by Gilman in the Procedings of the National Academy of Sciences USA 67, 305-312 (1970). Results were plotted as pmol cyclic AMP accumulated per 10^7 cells in excess of base line as a function of the log of the concentration of the analog. | ^a Biological activity was measured by cyclic AMP accumulation in S49 | cells. Relative activity is expressed as the ration of KA for | isoproterenol to KA for the compound.

[2] = tested on: rat blood pressure; assay: in vivo reduction of rat blood pressure after injection into the femoral vein; parameters: species or system male Sprague-Dawley rats; conditions: 0.001 to 10.0 mg/kg, ratio of molar ED50 of isoproterenol to molar ED50 of the compound (dose that reduces rat blood pressure by 50%)
Experimental: In addition to the in vitro testing set forth above, in vivo testing was also conducted on a number of conjugates of the invention. The tests were conducted by injecting various doses of the test conjugate into the femoral vein of rats and thereafter recording changes in heart rate, arterial pulse pressure and mean pressure.
More specifically, male Sprague-Dawley rats weighing 280-350 g had their femoral arteries connected to a Statham P-23 pressure transducer, which was in turn recorded on a Beckman Dynograph model R511A. Venus cannula were inserted in the femoral veins. Two syringes were attached to the veins via a 3-way stopcock. One syringe contained heparinized saline (40 units/ml) while the other contained the conjugate to be tested.
All cannulas were periodically flushed with the heparinized saline to prevent clots from forming. After the blood pressure and heart rate had stabilized, a volume of heparinized saline corresponding to the volume of drug conjugate the animal was to receive, was injected, and the response observed. Then various doses of the test drug conjugate were injected with a minimum interval of ten minutes between doses. The dose range was from 0.001 to 10.0 mg/kg, with the doses always being administered in increasing amounts. From the drug injections, a dose-response curve was obtained. The response curves were then compared to the animals' response to isoproterenol administered under the same conditions. Table 3 below presents the results of these in vivo tests:
^a Biological activity in vivo was measured as the effective dose tha
reduces rat blood pressure by 50%. Relative activity is expressed as the
ratio of the molar ED50 of isoproterenol to the molar ED50 of […]

| SMILES | Activity relative to isoproterenol [1] | In Vivo Activity Relative to Isoproterenol [2] |
| --- | --- | --- |
| CC(=O)N[C@@H](Cc1ccc(NC(=O)CCCCC(C)NCC(O)c2ccc(O)c(O)c2)cc1)C(=O)NCCCO (some centres unmarked) [A] | 9.0 × 10^-2 | – |
| CC(=O)N[C@H](Cc1ccc(NC(=O)CCCCC(C)NCC(O)c2ccc(O)c(O)c2)cc1)C(=O)NCCCO (some centres unmarked) [B] | 4.0 × 10^-1 | – |
| CC(=O)N[C@@H](Cc1ccc(NC(=O)CCCCC(C)NCC(O)c2ccc(O)c(O)c2)cc1)C(=O)NCC(=O)O (some centres unmarked) [C] | 4.4 × 10^-1 | – |
| CNC(=O)CNC(=O)[C@H](Cc1ccc(NC(=O)CCCCC(C)NCC(O)c2ccc(O)c(O)c2)cc1)NC(C)=O (stereo partly drawn) [D, N^α -Acetyl-p-[6-(β-3',4-Dihydroxyphenyl-β-Hydroxy)-Ethylamino-n-Heptanoylamino]-L-Phenylalanyl-Glycyl-Methylamide] | 1.1 | – |
| CNC(=O)CNC(=O)[C@H](Cc1ccc(NC(=O)CCCCC(C)NCC(O)c2ccc(O)c(O)c2)cc1)NC(=O)OC(C)(C)C (stereo partly drawn) [E, N^α -t-Butyloxycarbonyl-p-[6-(β-3',4'-Dihydroxyphenyl-β-Hydroxy)-Ethylamino-n-Heptanoylamino]-L-Phenylalanyl-Glycyl-Methylamide] | 4.1 | 3.74 |
| CNC(=O)CNC(=O)[C@@H](N)Cc1ccc(NC(=O)CCCCC(C)NCC(O)c2ccc(O)c(O)c2)cc1 (some centres unmarked) [F] | 1.3 × 10^-4 | – |
| CNC(=O)[C@H](Cc1ccc(NC(=O)CCCCC(C)NCC(O)c2ccc(O)c(O)c2)cc1)NC(=O)CNC(=O)OC(C)(C)C (some centres unmarked) [G] | 6.8 × 10^-1 | .92 |
| CNC(=O)CC[C@H](NC(C)=O)C(=O)N[C@@H](Cc1ccc(NC(=O)CCCCC(C)NCC(O)c2ccc(O)c(O)c2)cc1)C(=O)NCC(=O)NC (some centres unmarked) [H] | 3.7 × 10^-6 | 1.77 |
| CNC(=O)CNC(=O)[C@H](Cc1ccc(NC(=O)CCCCC(C)NCC(O)c2ccc(O)c(O)c2)cc1)NC(=O)[C@H](CCCO)NC(C)=O (some centres unmarked) [I] | 8.0 × 10^-5 | 1.48 |
| CNC(=O)CNC(=O)[C@H](Cc1ccc(NC(=O)CCCCC(C)NCC(O)c2ccc(O)c(O)c2)cc1)NC(=O)[C@H](CCCNC(N)=O)NC(C)=O (some centres unmarked) [J] | – | .79 |
| CNC(=O)CNC(=O)[C@H](Cc1ccc(NC(=O)CCCCC(C)NCC(O)c2ccc(O)c(O)c2)cc1)NC(=O)[C@H](CCCNC(N)=O)NC(=O)OC(C)(C)C (some centres unmarked) [K] | 3.8 × 10^-5 | .22 |
| CNC(=O)CC[C@H](NC(C)=O)C(=O)N[C@@H](Cc1ccc(NC(=O)CCCC(C)NCC(O)c2ccc(O)c(O)c2)cc1)C(=O)N[C@@H](CCC(=O)NC)C(=O)NC (some centres unmarked) [L] | 4.5 × 10^-6 | – |
| CNC(=O)CC[C@H](NC(C)=O)C(=O)N[C@@H](Cc1ccc(NC(=O)CCCCC(C)NCC(O)c2ccc(O)c(O)c2)cc1)C(=O)N[C@@H](CCC(=O)NC)C(=O)NC (stereo partly drawn) [M, N^α -Acetyl-N'-Methyl-L-Glutaminyl-p-[6-(β-3',4'-Dihydroxyphenyl-β-Hydroxy)-Ethylamino-n-Heptanoylamino]-L-Phenylalanyl-N'-Methyl-L-Glutaminyl-Methylamide] | 2.3 × 10^-5 | – |
| CNC(=O)CC[C@H](NC(C)=O)C(=O)N[C@@H](Cc1ccc(NC(=O)CCCCCC(C)NCC(O)c2ccc(O)c(O)c2)cc1)C(=O)N[C@@H](CCC(=O)NC)C(=O)NC (some centres unmarked) [N] | 8.6 × 10^-6 | – |
| CNC(=O)CNC(=O)[C@H](Cc1ccc(NC(=O)CCCCC(C)NCC(O)c2ccc(O)c(O)c2)cc1)NC(=O)[C@H](CCCO)NC(=O)[C@H](CCCO)NC(=O)[C@H](CCCO)NC(=O)OC(C)(C)C (some centres unmarked) [O] (Boc-[Nva(5-OH)][Nva(5-OH)][Nva(5-OH)][Phe(4-NH2)](X1)G-NHMe) | 1.0 | .76 |
| CNC(=O)CNC(=O)[C@H](CCCO)NC(=O)[C@H](CCCO)NC(=O)[C@H](CCCO)NC(=O)[C@H](Cc1ccc(NC(=O)CCCCC(C)NCC(O)c2ccc(O)c(O)c2)cc1)NC(=O)OC(C)(C)C (some centres unmarked) [P] (Boc-[Phe(4-NH2)](X1)[Nva(5-OH)][Nva(5-OH)][Nva(5-OH)]G-NHMe) | 7.9 × 10^-1 | .59 |
